In paper PMC10482913, “A new class of anticancer activity with computational studies for a novel bioactive aminophosphonates based on pyrazole moiety” (Scientific Reports, 2023):
Like-named read-outs stand apart in the source and are kept apart here.

Experiments:
[1] = test system: Colorectal carcinoma Colon cancer (HCT-116); assay: cells; format: cell-based, human; conditions: for IC50: Homo sapiens; for relative activity for colon carcinoma cells (HCT-116), in words: among all compounds
Description: (§1) Finally, all the studied phosphonate compounds have moderate to weak cytotoxicity activity on the normal cell WI-38.
(§2) The in vitro antitumor activity of the compounds under study in this research was investigated cell growth using the MTT assay, [31]. The human tumor cell lines that used to evaluate the activity are Human lung fibroblast (WI38), Colorectal carcinoma Colon cancer (HCT-116) and Epdermoid Carcinoma (HEP2). The MTT assay is a standard colorimetric assay that is used to measure cell growth. It is used to determine cytotoxicity of potential medicinal agents and other toxic materials. Detailed procedures for the MTT assay method is presented in the supporting information (Sect. S2). […]
(§3) Cytotoxicity Assay (Section S2)
(§4) The cell lines Human lung fibroblast (WI38), Colorectal carcinoma Colon cancer (HCT-116) and Epdermoid Carcinoma (HEP2) were used to determine the inhibitory effects of compounds on cell growth using the MTT assay. This colorimetric assay is based on the conversion of the yellow tetrazolium bromide (MTT) to a purple formazan derivative by mitochondrial succinate dehydrogenase in viable cells. Cell lines were cultured in RPMI-1640 medium with 10% fetal bovine serum. Antibiotics added were 100 units/ml penicillin and 100µg/ml streptomycin at 37 C in a 5% Co2 incubator. The cell lines were seedes in a 96-well plate at a density of 1.0x10^4 cells/well.
(§5) At 37 C for 48 h under 5% CO2. After incubation the cells were treated with different concentration of compounds and incubated for 24 h. After 24 h of drug treatment, 20 µl of MTT solution at […]
(§6) 5mg/ml was added and incubated for 4 h. Dimethyl sulfoxide (DMSO) in volume of 100 µl is added into each well to dissolve the purple formazan formed. The colorimetric assay is measured and recorded at absorbance of 570 nm using a plate reader (EXL 800, USA). The relative cell viability in percentage was calculated as (A570 of treated samples/A570 of untreated sample) X 100.

[2] = test system: Human lung fibroblast normal cell line (WI38); assay: cells; format: cell-based
Description: as §1, §2, §3, §4, §5, §6

[3] = test system: Epdermoid Carcinoma (HEP2); format: cell-based, human; conditions: among all compounds
Description: as §2, §3
as §4, with “Antibiotics added were 100 units/ml penicillin and 100µg/ml streptomycin at 37 C in a 5% Co2 incubator. The cell lines were seedes in a 96-well plate at a density of 1.0x10^4 cells/well.” left out
5mg/ml was added and incubated for 4 h. […] The colorimetric assay is measured and recorded at absorbance of 570 nm using a plate reader (EXL 800, USA). The relative cell viability in percentage was calculated as (A570 of treated samples/A570 of untreated sample) X 100.

[4] = HCT-116, Figure 4, unit inferred, read-out: IC50 against colon carcinoma cells (HCT-116)
[5] = WI-38, Figure 6, unit inferred, read-out: IC50 against normal cell line (WI38)
[6] = HCT-116, read-out: IC50 against colon carcinoma cells (HCT-116)
[7] = WI-38, read-out: IC50 against normal cell line (WI38)

Row | SMILES | IC50 [1, 4] [µM] | IC50 [2, 5] [µM] | melting point [°C] | relative activity for colon carcinoma cells (HCT-116), in words [1] | IC50 [1, 6] [µM] | IC50 [2, 7] [µM] | relative activity for Epdermoid Carcinoma (HEP2), in words [3]
1 | CCOP(=O)(OCC)C(Nc1cc(-c2ccc([N+](=O)[O-])cc2)nn1-c1ccccc1)c1cccc(O)c1 (stereo not drawn) [Compound 2b, Diethyl{(3-(4-nitrophenyl)-1-phenyl-1H-pyrazol-5-ylamino)(3-hydroxyphenyl)}methylphosphonate] | 84.5 | 55.7 | 252 to 254 |  |  |  | 
2 | CCOP(=O)(OCC)C(Nc1cc(-c2ccc([N+](=O)[O-])cc2)nn1-c1ccccc1)c1cccc(Cl)c1 (stereo not drawn) [Compound 2c, Diethyl{(3-(4-nitrophenyl)-1-phenyl-1H-pyrazol-5-ylamino)(3-chlorophenyl)}methylphosphonate] | 45.7 | 29.7 | 150 to 152 |  |  |  | 
3 | CCOP(=O)(OCC)C(Nc1cc(-c2ccc([N+](=O)[O-])cc2)nn1-c1ccccc1)c1ccc([N+](=O)[O-])cc1 (stereo not drawn) [Compound 2d, Diethyl{(3-(4-nitrophenyl)-1-phenyl-1H-pyrazol-5-ylamino)(4-nitrophenyl)}methylphosphonate] | 19.9 | 41.9 | 234 to 235 | strongest activity |  |  | 
4 | CCOP(=O)(OCC)C(Nc1cc(-c2ccc([N+](=O)[O-])cc2)nn1-c1ccccc1)c1ccc(Cl)cc1 (stereo not drawn) [Compound 2e, Diethyl{(3-(4-nitrophenyl)-1-phenyl-1H-pyrazol-5-ylamino)(4-chlorophenyl)}methylphosphonate] | 57.3 | 86.3 | 298 to 300 |  |  |  | 
5 | CCOP(=O)(OCC)C(Nc1cc(-c2ccccc2)nn1-c1ccc([N+](=O)[O-])cc1[N+](=O)[O-])c1ccc(N(C)C)cc1 (stereo not drawn) [Compound 2f, Diethyl{(1-(2,4-dinitrophenyl)-3-phenyl-1H-pyrazol-5-ylamino)(4-N,Ndimethylaminophenyl)} methyl phosphonate] | 37.8 | 65.1 | 244 to 246 |  |  |  | 
6 | O=[N+]([O-])c1ccc(-c2cc(NC(c3cccc(O)c3)P(=O)(Oc3ccccc3)Oc3ccccc3)n(-c3ccccc3)n2)cc1 (stereo not drawn) [Compound 4a, Diphenyl{(3-(4-nitrophenyl)-1-phenyl-1H-pyrazol-5-ylamino)(3-hydroxyphenyl)}methylphosphonate] |  |  | 266 to 268 |  | 73.2 | 47.1 | 
7 | O=[N+]([O-])c1ccc(-c2cc(NC(c3ccc([N+](=O)[O-])cc3)P(=O)(Oc3ccccc3)Oc3ccccc3)n(-c3ccccc3)n2)cc1 (stereo not drawn) [Compound 4b, Diphenyl{(3-(4-nitrophenyl)-1-phenyl-1H-pyrazol-5-ylamino)(4-nitrophenyl)}methylphosphonate] |  |  | 167 to 168 | strongest activity | 15.1 | 62.8 | highest activity
8 | O=[N+]([O-])c1cccc(C(Nc2cc(-c3ccccc3)nn2-c2ccc([N+](=O)[O-])cc2[N+](=O)[O-])P(=O)(Oc2ccccc2)Oc2ccccc2)c1 (stereo not drawn) [Compound 4c, Diphenyl{(1-(2,4-dinitrophenyl)-3-phenyl-1H-pyrazol-5-ylamino)(3-nitrophenyl)}methyl phosphonate] |  |  |  |  | 51.3 | > 100 | 
9 | CN(C)c1ccc(C(Nc2cc(-c3ccccc3)nn2-c2ccc([N+](=O)[O-])cc2[N+](=O)[O-])P(=O)(Oc2ccccc2)Oc2ccccc2)cc1 (stereo not drawn) [Compound 4d, Diphenyl{(1-(2,4-dinitrophenyl)-3-phenyl-1H-pyrazol-5-ylamino)(4-N,N-dimethylaminophenyl)} methyl phosphonate] |  |  | 212 to 214 |  | 26.1 | 78.3 | highest activity
